# In ChEMBL document CHEMBL5579829, “Discovery of a potent CDKs/FLT3 PROTAC with enhanced differentiation and proliferation inhibition for AML” (Eur J Med Chem, 2024):
# The source made the active and inactive calls. The rule behind the calls is not given here.
# How the values were obtained:
# [1] = test system: HL-60; experiment: Induction of pro-differentiation of human HL-60 cells assessed as CD11b expression at 4 nM measured after 3 days by immunostaining-based flow cytometry (reference value: 8.32 to 10.55%); type: functional; conditions: time 3 day
# [2] = molecular target: T1, Protein cereblon/Cyclin-dependent kinase 6 (Homo sapiens, UniProt Q00534+Q96SW2); experiment: Protac activity at CRBN/CDK6 in human Kasumi 1 cells assessed as induction of CDK6 degradation at 2 to 32 nM measured after 3 days by Western blot analysis; type: cell-based; conditions: dose 2-32 nM, time 3.0 day
# Target sequence in this assay (Q00534 whole entry, looked up): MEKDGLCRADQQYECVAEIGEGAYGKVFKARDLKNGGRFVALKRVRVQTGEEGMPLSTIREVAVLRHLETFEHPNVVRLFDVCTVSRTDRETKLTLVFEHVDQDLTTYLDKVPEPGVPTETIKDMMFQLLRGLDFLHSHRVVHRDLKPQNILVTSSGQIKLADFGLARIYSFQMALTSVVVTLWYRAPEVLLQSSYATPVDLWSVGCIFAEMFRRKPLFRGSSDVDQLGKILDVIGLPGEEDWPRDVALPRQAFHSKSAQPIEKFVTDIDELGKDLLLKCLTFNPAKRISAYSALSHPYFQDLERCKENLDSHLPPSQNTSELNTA
# Target sequence in this assay (Q96SW2 whole entry, looked up): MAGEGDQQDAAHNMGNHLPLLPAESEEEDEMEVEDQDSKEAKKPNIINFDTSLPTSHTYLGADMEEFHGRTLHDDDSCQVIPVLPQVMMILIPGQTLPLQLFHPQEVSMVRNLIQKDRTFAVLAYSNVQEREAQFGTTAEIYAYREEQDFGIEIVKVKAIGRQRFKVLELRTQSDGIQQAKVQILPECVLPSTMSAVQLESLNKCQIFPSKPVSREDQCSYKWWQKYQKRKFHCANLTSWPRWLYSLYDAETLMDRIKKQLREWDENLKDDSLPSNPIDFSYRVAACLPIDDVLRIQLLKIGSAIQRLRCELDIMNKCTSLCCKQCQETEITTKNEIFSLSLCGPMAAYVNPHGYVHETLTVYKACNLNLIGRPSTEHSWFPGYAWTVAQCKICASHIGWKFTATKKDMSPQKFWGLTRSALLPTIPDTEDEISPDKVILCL
# [3] = molecular target: T2, Protein cereblon/Cyclin-dependent kinase 1 (Homo sapiens) (UniProt P06493+Q96SW2); experiment: Protac activity at CRBN/CDK1 in human HL-60 cells assessed as induction of CDK1 degradation at 4 to 64 nM measured after 3 days by Western blot analysis; type: cell-based; conditions: dose 4-64 nM, time 3.0 day
# [4] = test system: HL-60; experiment: Induction of pro-differentiation of human HL-60 cells assessed as increase in CD11b expression at 6.25 nM measured after 5 days by immunostaining-based flow cytometry relative to 500 nM CPS2; type: functional; conditions: time 5 day
# [5] = molecular target: T3, Protein cereblon/Cyclin-dependent kinase 2 (Homo sapiens, UniProt P24941+Q96SW2); experiment: Protac activity at CRBN/CDK2 in human Kasumi 1 cells assessed as induction of CDK2 degradation at 2 to 32 nM measured after 3 days by Western blot analysis; type: cell-based; conditions: dose 2-32 nM, time 3.0 day
# [6] = molecular target: T1, Protein cereblon/Cyclin-dependent kinase 6; experiment: Protac activity at CRBN/CDK6 in human HL-60 cells assessed as induction of CDK6 degradation measured after 3 days by Western blot analysis; type: cell-based
# Target sequence in this assay (Q00534 whole entry): as the sequence (Q00534 whole entry, looked up) above
# Target sequence in this assay (Q96SW2 whole entry): as the sequence (Q96SW2 whole entry, looked up) above
# [7] = molecular target: T3, Protein cereblon/Cyclin-dependent kinase 2; experiment: Protac activity at CRBN/CDK2 in human THP-1 cells assessed as induction of CDK2 degradation at 4 to 64 nM measured after 3 days by Western blot analysis; type: cell-based; conditions: dose 4-64 nM, time 3.0 day
# [8] = molecular target: Protein cereblon/Cyclin-dependent kinase 4 (Homo sapiens, UniProt P11802+Q96SW2); experiment: Protac activity at CRBN/CDK4 in human HL-60 cells assessed as induction of CDK4 degradation measured after 3 days by Western blot analysis; type: cell-based
# [9] = molecular target: T4, Protein cereblon/Cyclin-dependent kinase 9 (Homo sapiens, UniProt P50750+Q96SW2); experiment: Protac activity at CRBN/CDK9 in human MV4-11 cells assessed as induction of CDK9 degradation at 2 to 32 nM measured after 3 days by Western blot analysis; type: cell-based; conditions: dose 2-32 nM, time 3.0 day
# Target sequence in this assay (P50750 whole entry, looked up): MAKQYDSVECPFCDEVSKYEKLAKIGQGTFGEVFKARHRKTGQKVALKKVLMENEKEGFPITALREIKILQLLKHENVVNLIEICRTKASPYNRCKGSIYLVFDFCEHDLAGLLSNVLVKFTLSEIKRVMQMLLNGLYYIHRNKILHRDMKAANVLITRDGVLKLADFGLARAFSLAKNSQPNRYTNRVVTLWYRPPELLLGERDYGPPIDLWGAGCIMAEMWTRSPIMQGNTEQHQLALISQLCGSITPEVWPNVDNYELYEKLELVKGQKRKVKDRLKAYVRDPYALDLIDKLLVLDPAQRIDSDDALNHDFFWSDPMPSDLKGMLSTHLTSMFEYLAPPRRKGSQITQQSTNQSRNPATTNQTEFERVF
# Target sequence in this assay (Q96SW2 whole entry, looked up): as the sequence (Q96SW2 whole entry, looked up) above
# [10] = molecular target: T4, Protein cereblon/Cyclin-dependent kinase 9; experiment: Protac activity at CRBN/CDK9 in human Kasumi 1 cells assessed as induction of CDK9 degradation at 2 to 32 nM measured after 3 days by Western blot analysis; type: cell-based; conditions: dose 2-32 nM, time 3.0 day
# Target sequence in this assay (P50750 whole entry, looked up): as the sequence (P50750 whole entry, looked up) above
# Target sequence in this assay (Q96SW2 whole entry, looked up): as the sequence (Q96SW2 whole entry, looked up) above
# [11] = molecular target: T5, Protein cereblon/Cyclin-dependent kinase 5 (Homo sapiens) (UniProt Q00535+Q96SW2); experiment: Protac activity at CRBN/CDK5 in human Kasumi 1 cells assessed as induction of CDK5 degradation at 2 to 32 nM measured after 3 days by Western blot analysis; type: cell-based; conditions: dose 2-32 nM, time 3.0 day
# [12] = test system: HL-60; experiment: Induction of pro-differentiation of human HL-60 cells assessed as CD11b expression at 2 nM measured after 5 days by immunostaining-based flow cytometry (reference value: 10.08 to 10.33%); type: functional; conditions: time 5 day
# [13] = molecular target: T2, Protein cereblon/Cyclin-dependent kinase 1 (Homo sapiens); experiment: Protac activity at CRBN/CDK1 in human THP-1 cells assessed as induction of CDK1 degradation at 4 to 64 nM measured after 3 days by Western blot analysis; type: cell-based; conditions: dose 4-64 nM, time 3.0 day
# [14] = molecular target: T2, Protein cereblon/Cyclin-dependent kinase 1 (Homo sapiens); experiment: Protac activity at CRBN/CDK1 in human Kasumi 1 cells assessed as induction of CDK1 degradation at 2 to 32 nM measured after 3 days by Western blot analysis; type: cell-based; conditions: dose 2-32 nM, time 3.0 day
# [15] = test system: NB-4; experiment: Antiproliferative activity against human NB4 cells measured after 1 to 3 days by CCK-8 assay; type: functional, cell-based
# [16] = molecular target: T5, Protein cereblon/Cyclin-dependent kinase 5 (Homo sapiens); experiment: Protac activity at CRBN/CDK5 in human THP-1 cells assessed as induction of CDK5 degradation at 4 to 64 nM measured after 3 days by Western blot analysis; type: cell-based; conditions: dose 4-64 nM, time 3.0 day
# [17] = test system: HL-60; experiment: Induction of pro-differentiation of human HL-60 cells assessed as increase in CD11b expression at 6.25 nM measured after 5 days by immunostaining-based flow cytometry relative to control; type: functional; conditions: time 5 day
# [18] = molecular target: T3, Protein cereblon/Cyclin-dependent kinase 2; experiment: Protac activity at CRBN/CDK2 in human HL-60 cells assessed as induction of CDK2 degradation at 10 nM measured after 24 hrs in presence of CDK2 inhibitor FN-150 by Western blot analysis; type: cell-based
# [19] = test system: OCI-AML2; experiment: Antiproliferative activity against human OCI-AML2 cells measured after 1 to 3 days by CCK-8 assay; type: functional, cell-based
# [20] = molecular target: T4, Protein cereblon/Cyclin-dependent kinase 9; experiment: Protac activity at CRBN/CDK9 in human HL-60 cells assessed as induction of CDK9 degradation measured after 3 days by Western blot analysis; type: cell-based
# Target sequence in this assay (P50750 whole entry): as the sequence (P50750 whole entry, looked up) above
# Target sequence in this assay (Q96SW2 whole entry): as the sequence (Q96SW2 whole entry, looked up) above
# [21] = test system: HL-60; experiment: Induction of pro-differentiation of human HL-60 cells assessed as increase in CD11b expression measured after 3 to 5 days by immunostaining-based flow cytometry; type: functional, cell-based; conditions: dose 1-6.25 nM, time 3-5 day
# [22] = molecular target: Protein cereblon/Receptor-type tyrosine-protein kinase FLT3 (Homo sapiens, UniProt P36888+Q96SW2); experiment: Protac activity at CRBN/FLT3-ITD in human HL-60 cells assessed as induction of FLT3 degradation measured after 3 days by Western blot analysis; type: cell-based
# Protein cereblon/Receptor-type tyrosine-protein kinase FLT3, sequence (P36888 whole entry, looked up, change not shown): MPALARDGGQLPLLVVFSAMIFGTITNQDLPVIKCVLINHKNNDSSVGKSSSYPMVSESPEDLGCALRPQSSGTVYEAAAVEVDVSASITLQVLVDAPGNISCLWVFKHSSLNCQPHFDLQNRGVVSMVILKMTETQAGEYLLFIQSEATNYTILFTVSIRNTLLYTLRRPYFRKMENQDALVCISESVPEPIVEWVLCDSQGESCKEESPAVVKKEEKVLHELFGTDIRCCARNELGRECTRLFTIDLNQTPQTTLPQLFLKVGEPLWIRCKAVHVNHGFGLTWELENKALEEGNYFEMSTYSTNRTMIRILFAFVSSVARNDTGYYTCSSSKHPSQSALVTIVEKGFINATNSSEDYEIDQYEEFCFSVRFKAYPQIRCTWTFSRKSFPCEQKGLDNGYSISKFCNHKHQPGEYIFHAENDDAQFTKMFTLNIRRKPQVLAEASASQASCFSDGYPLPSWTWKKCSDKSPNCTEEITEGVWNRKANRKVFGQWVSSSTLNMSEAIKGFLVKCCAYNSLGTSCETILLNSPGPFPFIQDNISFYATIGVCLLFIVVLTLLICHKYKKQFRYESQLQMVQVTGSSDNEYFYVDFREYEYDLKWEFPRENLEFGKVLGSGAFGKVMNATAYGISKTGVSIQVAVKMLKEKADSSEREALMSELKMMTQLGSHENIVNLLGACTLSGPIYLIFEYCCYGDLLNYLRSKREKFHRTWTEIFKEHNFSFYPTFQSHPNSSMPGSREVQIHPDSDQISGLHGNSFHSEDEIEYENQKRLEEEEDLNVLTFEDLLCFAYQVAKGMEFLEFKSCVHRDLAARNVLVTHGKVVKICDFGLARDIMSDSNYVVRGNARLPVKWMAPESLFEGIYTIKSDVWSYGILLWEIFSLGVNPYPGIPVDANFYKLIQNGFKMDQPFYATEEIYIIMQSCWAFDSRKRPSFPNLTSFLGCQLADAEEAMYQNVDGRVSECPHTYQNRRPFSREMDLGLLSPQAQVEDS
# Protein cereblon/Receptor-type tyrosine-protein kinase FLT3, sequence (Q96SW2 whole entry, looked up, change not shown): as the sequence (Q96SW2 whole entry, looked up) above
# T2 sequence (P06493 whole entry, looked up): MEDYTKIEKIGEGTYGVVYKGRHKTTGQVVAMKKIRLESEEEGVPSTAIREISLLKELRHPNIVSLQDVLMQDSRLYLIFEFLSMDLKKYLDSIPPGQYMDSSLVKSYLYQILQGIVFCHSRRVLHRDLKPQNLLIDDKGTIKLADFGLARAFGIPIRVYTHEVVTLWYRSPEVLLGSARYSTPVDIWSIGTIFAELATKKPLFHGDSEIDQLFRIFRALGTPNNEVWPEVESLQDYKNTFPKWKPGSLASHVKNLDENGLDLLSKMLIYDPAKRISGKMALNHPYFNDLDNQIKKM
# T2 sequence (Q96SW2 whole entry, looked up): as the sequence (Q96SW2 whole entry, looked up) above
# T5 sequence (Q00535 whole entry, looked up): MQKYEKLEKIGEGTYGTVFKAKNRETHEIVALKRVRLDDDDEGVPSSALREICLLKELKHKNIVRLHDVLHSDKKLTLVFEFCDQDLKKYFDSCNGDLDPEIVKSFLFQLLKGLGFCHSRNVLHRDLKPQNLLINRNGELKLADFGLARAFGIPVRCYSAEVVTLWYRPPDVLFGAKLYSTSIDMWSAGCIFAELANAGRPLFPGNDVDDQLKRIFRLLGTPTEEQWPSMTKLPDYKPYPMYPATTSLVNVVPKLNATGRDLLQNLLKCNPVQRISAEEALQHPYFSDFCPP
# T5 sequence (Q96SW2 whole entry, looked up): as the sequence (Q96SW2 whole entry, looked up) above
# Protein cereblon/Cyclin-dependent kinase 4, sequence (P11802 whole entry): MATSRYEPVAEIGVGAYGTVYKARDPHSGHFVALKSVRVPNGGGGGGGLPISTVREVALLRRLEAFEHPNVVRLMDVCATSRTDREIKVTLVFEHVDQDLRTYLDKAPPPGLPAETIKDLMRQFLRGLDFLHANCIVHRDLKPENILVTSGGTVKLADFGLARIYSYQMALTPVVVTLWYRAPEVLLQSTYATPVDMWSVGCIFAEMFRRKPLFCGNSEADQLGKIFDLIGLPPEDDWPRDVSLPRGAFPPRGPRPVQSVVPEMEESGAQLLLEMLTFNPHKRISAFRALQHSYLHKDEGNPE
# Protein cereblon/Cyclin-dependent kinase 4, sequence (Q96SW2 whole entry): as the sequence (Q96SW2 whole entry, looked up) above
smiles,measurement,setting,value
O=C1CCC(N2C(=O)c3ccc(N4CCC(CN5CCN(Cc6ccc(NC(=O)c7n[nH]cc7Nc7ncnc8[nH]ccc78)cc6)CC5)CC4)cc3C2=O)C(=O)N1 (configuration not stated),Activity,[1],43.94%
same,Activity,[2],Active
same,Activity,[3],inactive
same,fold change (FC),[4],2.1
same,Activity,[5],Active
same,DC50,[6],2.71 nM
same,Activity,[7],Active
same,DC50,[8],4.41 nM
same,Activity,[9],Active
same,Activity,[10],Active
same,Activity,[11],inactive
same,Activity,[12],36.57%
same,Activity,[13],inactive
same,Activity,[14],inactive
same,IC50,[15],4.94 nM
same,Activity,[16],inactive
same,fold change (FC),[17],7.2
same,Activity,[18],inactive
same,IC50,[19],17.9 nM
same,DC50,[20],4.34 nM
same,Activity,[21],Dose-Dependent Effect
same,DC50,[22],5.69 nM
